Entries after “also recorded” stand apart in the source; their conditions may differ. Marks after values point to notes of the source that are not given here.
What was measured:
[1] = test system: ADP-induced platelet aggregation; experiment: Inhibition of ADP-induced platelet aggregation in rats ex vivo (Born's method); parameters: species or system rat; conditions: for Platelet Aggregation (%): male Wistar rats, ADP 1.0 μM, mean ± SD n = 6; for antiplatelet effect (in words): rat ex vivo
Procedure: Two hours after administration, rats were anesthetized using sodium pentobarbital and blood samples collected from the abdominal aorta for platelet aggregation tests using Born’s method. ADP (1.0 μM, Sigma-Aldrich, Co., St. Louis, MO, USA) was used as agonist for platelet aggregation. Platelet aggregation was measured using a coagulation analyzer (NJ4, Beijing Precil Instrument Company, Beijing, China).

[2] = rat, 1000 ng/mL
Procedure: Blood samples (100 μL) were collected every 10 min over 120 min, mixed with methanol (950 μL), water (50 μL) and an internal standard (IS) solution (diazepam, 100 μL, 100 ng/mL) and centrifuged at low temperature at 13,000 rpm. […] This was carried out using an Agilent 1100 Series HPLC system (degasser, pump, auto sampler, and column oven, Agilent Technologies, Santa Clara, CA, USA) coupled to an AB SCIEX Qtrap 2000 mass spectrometer (Applied Biosystems Sciex, Ottawa, ON, Canada) with an ESI source operated in the positive ion mode. Data acquisition and integration were performed by Analyst software (version 1.3.2, Applied Biosystems Sciex, Ottawa, ON, Canada). Chromatography was performed on a ZORBAX Extend-C18 column (150 mm × 4.6 mm i.d., 5 μm, Agilent Technologies, Santa Clara, CA, USA) maintained at 40 °C using methanol and 0.1% aqueous formic acid (20:80, v/v) as mobile phase delivered at a flow rate of 1.0 mL/min. The injection volume was 20 μL. A 50:50 split of the column eluent was made by means of a T-piece. The mass spectrometer was operated at unit resolution for Q1 and Q3 in the multiple reaction monitoring (MRM) mode with a dwell time of 200 ms per MRM channel. […] QC samples were prepared independently at concentrations of 3, 30, and 800 ng/mL in the same way. […]

esterases = conditions: cited from earlier work
CYP2C19 = conditions: cited from earlier work
[3] = rat; cited from earlier work
[4] = ex vivo 2 h after oral dose 7.8 μmol/kg

melting point | SMILES | Platelet Aggregation (%) [1, 4] | antiplatelet effect (in words) ([1]; oral dose 7.8 μmol/kg) | further results
– | O=S(=O)(O)O.[2H]C([2H])([2H])OC(=O)[C@H](c1ccccc1Cl)N1CCc2sccc2C1 [Compound 8, Methyl-d3 (S)-2-(2-chlorophenyl)-2-(6,7-dihydrothieno[3,2-c]pyridin-5(4H)-yl)acetate bisulfate] | 36.6 ± 6.6% | potent inhibitors | –
– | [2H]C([2H])([2H])OC(=O)[C@H](c1ccccc1Cl)N1CCC2SC(=O)C=C2C1 (stereo partly drawn) [Compound 9, Methyl-d3 (2S)-2-(2-chlorophenyl)-2-(2-oxo-2,6,7,7a-tetrahydrothieno[3,2-c]pyridin-5(4H)-yl)acetate] | 21.2 ± 7.6% | potent antiplatelet agent | –
– | [2H]C([2H])([2H])OC(=O)[C@H](c1ccccc1Cl)N1CCc2sc(OC(C)=O)cc2C1 [Compound 10a, Methyl-d3 (S)-2-(2-acetoxy-6,7-dihydrothieno[3,2-c]pyridin-5(4H)-yl)-2-(2chlorophenyl)acetate] | 17.3 ± 8.2% | potent inhibitors; also recorded: potent antiplatelet activity | –
– | Cl.[2H]C([2H])([2H])OC(=O)[C@H](c1ccccc1Cl)N1CCc2sc(OC(=O)CC)cc2C1 [Compound 10b, (S)-5-(1-(2-Chlorophenyl)-2-(methoxy-d3)-2-oxoethyl)-4,5,6,7-tetrahydrothieno[3,2-c]pyridin-2-yl propionate hydrochloride] | 24.9 ± 9.7% | potent antiplatelet activity | –
– | [2H]C([2H])([2H])OC(=O)[C@H](c1ccccc1Cl)N1CCc2sc(OC(=O)CCC)cc2C1 [Compound 10c, (S)-5-(1-(2-Chlorophenyl)-2-(methoxy-d3)-2-oxoethyl)-4,5,6,7-tetrahydrothieno[3,2-c]pyridin-2-yl butyrate] | 29.9 ± 9.5% | potent antiplatelet activity | –
146.7 to 149.9 °C | Cl.[2H]C([2H])([2H])OC(=O)[C@H](c1ccccc1Cl)N1CCc2sc(OC(=O)C(C)C)cc2C1 [Compound 10d, (S)-5-(1-(2-Chlorophenyl)-2-(methoxy-d3)-2-oxoethyl)-4,5,6,7-tetrahydrothieno[3,2-c]pyridin-2-yl isobutyrate hydrochloride] | 36.3 ± 4.5% | potent antiplatelet activity | –
– | [2H]C([2H])([2H])OC(=O)[C@H](c1ccccc1Cl)N1CCc2sc(OC(=O)C3CC3)cc2C1 [Compound 10e, (S)-5-(1-(2-Chlorophenyl)-2-(methoxy-d3)-2-oxoethyl)-4,5,6,7-tetrahydrothieno[3,2-c]pyridin-2-yl cyclopro-panecarboxylate] | 24.6 ± 10.0% | anomalously potent; also recorded: potent antiplatelet activity | –
49.4 to 52.7 °C | [2H]C([2H])([2H])OC(=O)[C@H](c1ccccc1Cl)N1CCc2sc(OC(=O)CCCCC)cc2C1 [Compound 10g, (S)-5-(1-(2-Chlorophenyl)-2-(methoxy-d3)-2-oxoethyl)-4,5,6,7-tetrahydrothieno[3,2-c]pyridin-2-yl hexanoate] | 35.2 ± 7.7% | potent antiplatelet activity | –
35.8 to 37.6 °C | [2H]C([2H])([2H])OC(=O)[C@H](c1ccccc1Cl)N1CCc2sc(OC(=O)CCCCCCCCCCC)cc2C1 [Compound 10i, (S)-5-(1-(2-Chlorophenyl)-2-(methoxy-d3)-2-oxoethyl)-4,5,6,7-tetrahydrothieno[3,2-c]pyridin-2-yl laurate] | 49.7 ± 4.0% | – | –
121.7 to 123.1 °C | [2H]C([2H])([2H])OC(=O)[C@H](c1ccccc1Cl)N1CCc2sc(OC(=O)C=Cc3ccccc3)cc2C1 [Compound 10j, (S)-5-(1-(2-Chlorophenyl)-2-(methoxy-d3)-2-oxoethyl)-4,5,6,7-tetrahydrothieno[3,2-c]pyridin-2-yl cinnamate] | 56.4 ± 6.9% | – | –
– | Cl.[2H]C([2H])([2H])OC(=O)[C@H](c1ccccc1Cl)N1CCc2sc(OC(=O)c3ccccc3)cc2C1 [Compound 10k, (S)-5-(1-(2-Chlorophenyl)-2-(methoxy-d3)-2-oxoethyl)-4,5,6,7-tetrahydrothieno[3,2-c]pyridin-2-yl benzoate hydrochloride] | 43.6 ± 9.5% | – | –
– | [2H]C([2H])([2H])OC(=O)[C@H](c1ccccc1Cl)N1CCc2sc(OC(=O)c3ccccc3C(F)(F)F)cc2C1 [Compound 10l, (S)-5-(1-(2-Chlorophenyl)-2-(methoxy-d3)-2-oxoethyl)-4,5,6,7-tetrahydrothieno[3,2-c]pyridin-2-yl 2-(trifluoromethyl)benzoate] | 49.2 ± 4.6% | – | –
92.1 to 94.8 °C | [2H]C([2H])([2H])OC(=O)[C@H](c1ccccc1Cl)N1CCc2sc(OC(=O)c3cccnc3)cc2C1 [Compound 10m, (S)-5-(1-(2-Chlorophenyl)-2-(methoxy-d3)-2-oxoethyl)-4,5,6,7-tetrahydrothieno[3,2-c]pyridin-2-yl nicotinate] | 37.4 ± 6.7% | strong potency; also recorded: potent antiplatelet activity | –
– | [2H]C([2H])([2H])OC(=O)[C@@H](c1ccccc1Cl)N1CCc2sc(OC(C)=O)cc2C1 [Compound R-10a, Methyl-d3 (R)-2-(2-acetoxy-6,7-dihydrothieno[3,2-c]pyridin-5(4H)-yl)-2-(2chlorophenyl)acetate] | 57.4 ± 5.0% | almost inactive | –
– | COC(=O)[C@H](c1ccccc1Cl)N1CCc2sccc2C1 [clopidogrel, Clopidogrel] | 59.8 ± 8.4% | low activity | Platelet Aggregation (%) ([1]; ex vivo 2 h after oral dose 78 μmol/kg (clopidogrel bisulfate, active control)): 15.8 ± 8.0 ^b %; antiplatelet effect (in words) ([1]; oral dose 78 μmol/kg): strong inhibitory effect; time after which concentration was below the limit of detection [2]: 70 min; proportion hydrolyzed by esterases to inactive clopidogrel acid (esterases): 85%; proportion of an oral dose metabolized to inactive metabolites (esterases): more than 90%; contribution of CYP2C19 to the first step (to 2-oxoclopidogrel) (CYP2C19): 44.9%; contribution of CYP2C19 to the second step (2-oxoclopidogrel to AM) (CYP2C19): 20.6%
– | COC(=O)[C@H](c1ccccc1Cl)N1CCc2sc(OC(C)=O)cc2C1 [vicagrel, reference compound] | 20.0 ± 9.1% | potent inhibitors | level of AM relative to clopidogrel [3]: four-fold

SMILES | melting point | Platelet Aggregation (%) [1, 4] | antiplatelet effect (in words) ([1]; oral dose 7.8 μmol/kg) | further results
[2H]C([2H])([2H])OC(=O)[C@H](c1ccccc1Cl)N1CCc2sc(OC(=O)C(C)(C)C)cc2C1 [Compound 10f, (S)-5-(1-(2-Chlorophenyl)-2-(methoxy-d3)-2-oxoethyl)-4,5,6,7-tetrahydrothieno[3,2-c]pyridin-2-yl pivalate] | 105.4 to 107.1 °C | 44.7 ± 4.1% | – | –
[2H]C([2H])([2H])OC(=O)[C@H](c1ccccc1Cl)N1CCc2sc(OC(=O)C(C)(C)CC)cc2C1 [Compound 10h, (S)-5-(1-(2-Chlorophenyl)-2-(methoxy-d3)-2-oxoethyl)-4,5,6,7-tetrahydrothieno[3,2-c]pyridin-2-yl 2,2-dimethylbutanoate] | 99.4 to 100.3 °C | 48.5 ± 6.7% | – | –
